Measurements taken from patent publication US9101620B2, “Polymorph of 3-(substituteddihydroisoindolinone-2-yl)-2,6-dioxopiperidine, and pharmaceutical compositions thereof” (Nanjing Cavendish Bio-Engineering Technology Co., Ltd., priority 2009, dated 2015).

Experiments:
Format in all cases: physicochemical
[1] = Destruction test: impurities in raw materials before destruction (HPLC); conditions: for Total impurities in raw materials before destruction: HPLC peak area normalization
Source text: The methods of destruction experiment of the Polymorph I of this invention (hereinafter referred to as “Polymorph I”) contrasting with the Polymorph A and B of 3-(4-amino-1-oxo-1,3-dihydro-2H-isoindole-2-yl)-piperidine-2,6-dione prepared by the method in CN 1871003A (hereinafter referred to as “Polymorph A” and “polymorph B”) and results of stability are followed:
(§1) HPLC conditions and system applicability: octadecylsilane bonded silica as the filler; 0.01 mol/L of potassium dihydrogen phosphate (adjusted to pH 3.5 by phosphoric acid)-methanol-acetonitrile (80:15:5) as the mobile phase; detection wavelength was 240 nm; the number of theoretical plates should be not less than 2000, calculated according to the peak of lenalidomide. The resolution of the peak of 3-(4-amino-1-oxo-1,3-dihydro-2H-isoindole-2-yl)-piperidine-2,6-dione from the peaks of adjacent impurities should meet requirements.
(§2) Determination method: sample was dissolved in mobile phase to be the solution containing 0.5 mg per 1 mL. 20 μL of such solution was injected into liquid chromatograph and chromatogram was recorded until fourfold the retention time of major component peak. If there were impurities peaks in the chromatogram of sample solution, total impurities and sole impurity were calculated by normalization method on the basis of peak area.

[2] = Oxidation destruction (30% H2O2), related substances by HPLC; conditions: for Major impurity, peak tR5.649-5.660 / Major impurity, peak tR10.372-10.401 / Major impurity, peak tR32.279-32.318 / Major impurity, peak tR35.063-35.098 / Total impurities generated by oxidation destruction: 30% H2O2, room temperature, 2 hour; for Chemical stability (in words): oxidating condition / oxidation destroy experiment
Description: (§3) Oxidation destruction: 50 mg of sample weighted accurately was added into measuring flask of 100 mL, and 10 mL 30% H2O2 was added. After standing at room temperature for 2 hour, the mixture was diluted with mobile phase to scale and shook to be homogeneous, and determined by HPLC.
as §1, §2

[3] = Acid destruction (0.1 mol/L HCl), related substances by HPLC; conditions: for Major impurity, peak tR4.717-4.737 / Major impurity, peak tR7.367-7.381 / Major impurity, peak tR11.067-11.100 / Total impurities generated by 0.1 mol/L acid destruction for 1 hour: 0.1 mol/L HCl, room temperature, 1 hour; for Chemical stability (in words): acid condition / 0.1 mol/L diluted HCl solution
Description: as §3, with “Acid” for “Oxidation”, “0.1 mol/L HCl solution” for “30% H2O2”, “1” for “2”, “hour, an equal amount of 0.1 mol/L NaOH solution was added for neutralization. Then” for “hour,”
as §1, §2

Major impurity, peak tR5.872-5.948 [1] [%] | Major impurity, peak tR6.847-6.855 [1] [%] | Major impurity, peak tR10.961-11.165 [1] [%] | Total impurities in raw materials before destruction [1] | Major impurity, peak tR5.649-5.660 [2] [%] | Major impurity, peak tR10.372-10.401 [2] [%] | Major impurity, peak tR32.279-32.318 [2] [%] | Major impurity, peak tR35.063-35.098 [2] [%] | Total impurities generated by oxidation destruction [2] | Chemical stability (in words) [2] | Major impurity, peak tR4.717-4.737 [3] [%] | Major impurity, peak tR7.367-7.381 [3] [%] | Major impurity, peak tR11.067-11.100 [3] [%] | Total impurities generated by 0.1 mol/L acid destruction for 1 hour [3] | Chemical stability (in words) [3] | Compound
0.01 | 0.01 | 0.04 | impurities: 0.06% | 0.39 | 0.08 | 0.08 | 0.14 | impurities: 0.82% | poor chemical stability | 0.33 | 0.72 | 0.04 | impurities: 1.13% | poor chemical stability | Nc1cccc2c1CN(C1CCC(=O)NC1=O)C2=O (single isomer, unassigned) [Polymorph A, 3-(4-amino-1-oxo-1,3-dihydro-2H-isoindole-2-yl)-piperidine-2,6-dione]
0.01 | 0.01 | 0.05 | impurities: 0.07% | 0.36 | 0.11 | 0.10 | 0.13 | impurities: 0.89% | poor chemical stability | 0.33 | 0.72 | 0.04 | impurities: 1.22% | poor chemical stability | Nc1cccc2c1CN(C1CCC(=O)NC1=O)C2=O (single isomer, unassigned) [Polymorph B, 3-(4-amino-1-oxo-1,3-dihydro-2H-isoindole-2-yl)-piperidine-2,6-dione]
